Results: paper PMC5331435, “Metabolism of Zearalenone and Its Major Modified Forms in Pigs” (Toxins, 2017)
Entries after “also recorded” stand apart in the source; their conditions may differ.

How the values were obtained:
human Caco-2/TC7 cells = details: after six and 24 h; cited from earlier work
human gut microbiota = details: cited from earlier work; for Share hydrolyzed after incubation with human gut microbiota: four hours; for Dose converted to unidentified metabolites / not recovered as identified metabolites / Dose detected as the aglycone (ZEN, α-ZEL or β-ZEL): incubation with human gut microbiota
[1] = Excretion and biological recovery of ZEN and its metabolites in urine and feces of piglets after a single oral bolus (HPLC-MS/MS); assay type: in vivo, pigs; details: for Hydrolysis in the gastrointestinal tract of pigs: oral application, conclusion from excreta analysis
Method: Four castrated male weaning piglets (sow: Landrace × Large White, boar: Pietrain; 33–35 days old, 7.9 ± 0.6 kg) were obtained from a local producer in Lower Austria. Animals were housed separately in metabolic cages in total for 22 days and were allowed to acclimatize for five days before the start of the experiment. They had free access to water and feed was provided twice per day (semi ad libitum). The diet was analyzed for its concentration of ZEN and naturally occurring metabolites thereof.
(§1) Using a repeated measures design, the piglets (n = 4) received water (negative control), ZEN (10 µg/kg b.w.; positive control) and the equimolar dose of ZEN-14-S (12.5 µg/kg b.w.), ZEN-16-Glc (15.1 µg/kg b.w.) and ZEN-14-Glc (15.1 µg/kg b.w.) per gavage (orogastric application) on day 1, 3, 7, 11, and 15 of the experiment, respectively. From the stock solutions containing between 991 (ZEN-14-S) and 1274 (ZEN-14-Glc) µg/mL of the analytes the adequate volumes for the animal experiment were removed and diluted with water for the oral application to obtain 5 µg/mL ZEN and the equimolar concentration of the other analytes in the aqueous stock solutions. Using polyvinyl chloride catheters (diameter 4.7 mm, Ch 14, mpö pfm GesmbH (Klagenfurt, Austria), length was adapted to the size of the esophagus of the piglets), volumes between 16 and 30 mL of the aqueous stock solutions were orally administered to the piglets, considering the piglets’ weight. After the toxin application, 10 mL of water was used to flush the catheter. Urine and feces of each of the piglets were quantitatively collected for the periods 0–24 h and 24–48 h after dosing. Urine was measured volumetrically on site and all excreta samples were stored at −20 °C until lyophilization (feces) or sample preparation and analysis (urine). The general condition of the animals was observed daily during the experiment.
Urine samples were diluted 1:5000 with water and the creatinine content was determined by LC-MS/MS as described earlier. For determination of ZEN, its plant and fungal metabolites and their metabolites in pigs, urine samples were diluted to 0.2 mM creatinine with water and centrifuged prior to HPLC-MS/MS analysis.
Five-hundred milligram aliquots of freeze-dried and thoroughly homogenized feces samples were extracted three times (90/30/30 min) with 5 mL each of ACN/water (50/50, v/v) on a GFL rotary shaker (type 3017, Burgwedel, Germany). After each extraction step, samples were clarified by centrifugation (10 min, 12,500 rpm, GS-15 centrifuge, Beckman Coulter, Indianapolis, IN, USA). Aliquots of the pooled supernatants were centrifuged and measured by HPLC-MS/MS.
Analysis of the feces and urine samples was performed on a 1290 Infinity series UHPLC system (Agilent Technologies, Waldbronn, Germany) coupled to a 6500 QTrap mass spectrometer equipped with an IonDrive TurboV source (Sciex, Foster City, CA, USA). Analyst software version 1.6.2 (Sciex, Foster City, CA, USA) was used for instrument control and data analysis. Chromatographic separation was carried out on a Kinetex Biphenyl column (150 mm × 3 mm, 2.6 µm, Phenomenex, Aschaffenburg, Germany). Eluent A consisted of water/acetic acid (99.9/0.1, v/v), eluent B was composed of ACN/acetic acid (99.9/0.1, v/v). […] At 14 min, 100% was reached which was held until 16.9 min. Afterwards, the column was re-equilibrated at 15% B for 3 min, resulting in a total run time of 20 min. The flow rate was 400 µL/min, the column temperature was 30 °C and the injection volume was 2 µL. Mass spectrometric detection was performed in negative electrospray ionization mode and selected reaction monitoring (SRM) was applied as scan type. The source settings were as follows: source temperature 400 °C, ion spray voltage −4500 V, curtain gas 35 psi (ca. 240 kPa), ion source gas 1 at 55 psi (ca. 379 kPa) and gas 2 at 65 psi (ca. 448 kPa), collision gas (nitrogen) high. […]

[2] = system: intestinal bacteria from human fecal slurry; design: method as in PMID 24386883; details: cited from earlier work
[3] = difference of hydrolyzed and untreated urine; cited from earlier work
[4] = oral dose, cited from earlier work; for Recovery in rats: rats (ZEN-14-Glc as ZEN equivalents)
piglets = assay: Observation of clinical symptoms in treated piglets; assay type: in vivo, pigs; details: single orogastric bolus, 10 µg/kg b.w. ZEN or equimolar dose, four piglets
Method: For animal welfare considerations, amounts of administered toxins were chosen on the basis of no-observed-effect-levels of 10 µg/kg body weight per day for oral application in pigs. In short, four piglets received a single orogastric bolus of ZEN (10 µg/kg b.w.) and of its plant or fungal metabolites (at equimolar dose), respectively, using a repeated measures design.
as §1, with “Using polyvinyl chloride catheters (diameter 4.7 mm, Ch 14, mpö pfm GesmbH (Klagenfurt, Austria), length was adapted to the size of the esophagus of the piglets), volumes between 16 and 30 mL of the aqueous stock solutions were orally administered to the piglets, considering the piglets’ weight. After the toxin application, 10 mL of water was used to flush the catheter.” left out, “The general condition of the animals was observed daily during the experiment.” left out

[5] = design: method as in earlier work; details: humans, based on studies in pigs; cited from earlier work
[6] = pigs, cited from earlier work
[7] = system: human intestinal bacteria; design: method as in PMID 23347206; details: human in vitro model; cited from earlier work
[8] = system: human breast cancer cells (MCF7); design: method as in PMID 26792714; details: MCF7 including fetal bovine serum; cited from earlier work
[9] = design: method as in PMID 27856298; details: in vitro; cited from earlier work
[10] = design: method as in PMID 2143610; details: contaminated feed, one pig; cited from earlier work
human estrogen receptor = system: human estrogen receptor; design: method as in PMID 16751557; details: cited from earlier work
uterus weight = system: uterus weight; design: method as in PMID 1827972; details: intragastric, rats n = 6 per treatment; cited from earlier work
[11] = after oral administration, piglets
[12] = urine samples after oral administration, piglets

CC1CCCC(O)CCCC=Cc2cc(OC3OC(CO)C(O)C(O)C3O)cc(O)c2C(=O)O1 (stereo not drawn) [α-ZEL-14-Glc]
Amount detected in the basolateral compartment (human Caco-2/TC7 cells): only traces | Share hydrolyzed after incubation with human gut microbiota (human gut microbiota): over 97% | Dose converted to unidentified metabolites / not recovered as identified metabolites (human gut microbiota): 40% | Dose detected as the aglycone (ZEN, α-ZEL or β-ZEL) (human gut microbiota): 60%

C[C@H]1CCCC(=O)CCC/C=C/c2cc(O)cc(O[C@@H]3O[C@H](CO)[C@@H](O)[C@H](O)[C@H]3O)c2C(=O)O1 [ZEN-16-Glc, zearalenone-16-O-β-glucoside]
Detection of the intact administered conjugate in urine and feces [1, 11]: none of the glucosides could be detected in urine or feces | Detection of the intact administered conjugate in urine and feces ([1]; after oral administration, piglets, listed as ZEN-16-O-β-glucoside): neither detected in urine nor in feces | Hydrolysis in the gastrointestinal tract of pigs [1]: readily hydrolyzed to ZEN | Hydrolysis in the gastrointestinal tract of pigs ([1]; listed as ZEN-16-O-β-glucoside): completely hydrolyzed | Concentration of ZEN-14-GlcA in urine [1, 12]: traces | Residue in the fecal slurry ([2]; after two hours): no residue | Conversion by intestinal bacteria from human fecal slurry ([2]; within 30 min): nearly completely converted to ZEN within 30 min

C[C@H]1CCC[C@@H](O)CCC/C=C/c2cc(O)cc(O)c2C(=O)O1 [β-ZEL, β-zearalenol]
Glucuronidation in pig urine [3]: 94% | Glucuronidation in urine [3]: 56%

[13CH3][13C@H]1[13CH2][13CH2][13CH2][13C](=O)[13CH2][13CH2][13CH2]/[13CH]=[13CH]/[13c]2[13cH][13c](O)[13cH][13c](O)[13c]2[13C](=O)O1 [^13C-labeled ZEN]
Recovery in rats [4]: 74%

C[C@H]1CCCC(=O)CCC/C=C/c2cc(O)cc(O)c2C(=O)O1 [ZEN, zearalenone]
Detection of β-ZEL in urine and feces [1, 11]: neither be detected in urine nor in feces samples | Clinical symptoms during and after treatment (piglets): no clinical symptoms were observed | Tolerable daily intake (TDI) [5]: 0.25 µg/kg b.w. | Glucuronidation in pig urine [3]: 27% | Glucuronidation in urine [3]: 23% | Mean percentage of ingested ZEN excreted into urine ([6]; 24 h after application): 28.4% | Biological recovery of intravenously administered ZEN ([6]; intravenous): 77% | Part eliminated via urine within 12 h ([6]; intravenous): 44% | Terminal elimination half-life ([6]; intravenously administered): 2.63 h | Biological recovery of orally administered radiolabeled ZEN ([6]; oral, after 48 h): 67% | Radioactive ZEN excreted in bile that was reabsorbed into the systemic blood system [6]: about 85%

C[C@H]1CCCC(=O)CCC/C=C/c2cc(O[C@@H]3O[C@H](CO)[C@@H](O)[C@H](O)[C@H]3O)cc(O)c2C(=O)O1 [ZEN-14-Glc, zearalenone-14-O-β-glucoside]
Detection of the intact administered conjugate in urine and feces [1, 11]: none of the glucosides could be detected in urine or feces | Detection of the intact administered conjugate in urine and feces ([1]; after oral administration, piglets, listed as ZEN-14-O-β-glucoside): neither detected in urine nor in feces | Hydrolysis in the gastrointestinal tract of pigs [1]: readily hydrolyzed to ZEN | Hydrolysis in the gastrointestinal tract of pigs ([1]; listed as ZEN-14-O-β-glucoside): completely hydrolyzed | Hydrolysis upon incubation with human intestinal bacteria [7]: completely hydrolyzed within 30 min | Conversion by MCF7 cells [8]: convert ZEN-14-Glc to ZEN, α-ZEL and β-ZEL | Hydrolysis in bovine serum, plasma and whole blood [9]: in vitro hydrolysis of ZEN-14-Glc and release of ZEN | Metabolization during digestion in the pig [10]: completely metabolized to ZEN and α-ZEL | Interaction with the human estrogen receptor (human estrogen receptor): interrupted | Amount detected in the basolateral compartment (human Caco-2/TC7 cells): only traces | Share hydrolyzed after incubation with human gut microbiota (human gut microbiota): over 97% | Dose converted to unidentified metabolites / not recovered as identified metabolites (human gut microbiota): 50% | Dose detected as the aglycone (ZEN, α-ZEL or β-ZEL) (human gut microbiota): 40% | Recovery in rats [4]: 71% | Hydrolysis in the GI tract of rats ([4]; rats): partly hydrolyzed in the upper part of the GI tract

C[C@H]1CCCC(=O)CCC/C=C/c2cc(OS(=O)(=O)O)cc(O)c2C(=O)O1 [ZEN-14-S, zearalenone-14-sulfate]
Detection of the intact administered conjugate in urine and feces [1, 11]: neither detected in urine nor in feces samples | Detection of the intact administered conjugate in urine and feces ([1]; after oral administration, piglets, listed as ZEN-14-sulfate): neither detected in urine nor in feces | ZEN metabolites in feces ([1]; after oral application, piglets, listed as ZEN-14-sulfate): no ZEN metabolites were detected | Hydrolysis in the gastrointestinal tract of pigs [1]: rapidly hydrolyzed; also recorded: readily hydrolyzed to ZEN | Hydrolysis in the gastrointestinal tract of pigs ([1]; listed as ZEN-14-sulfate): completely hydrolyzed | Concentration of ZEN in urine ([1]; second sampling period (24–48 h), piglets): Only traces | Concentration of α-ZEL in urine [1, 12]: traces | Estrogenic activity (effect on uterus weight) (uterus weight): partially retained the estrogenic activities of ZEN | Hydrolysis upon incubation with human intestinal bacteria [7]: completely hydrolyzed within 30 min

C[C@H]1CCC[C@H](O)CCC/C=C/c2cc(O)cc(O)c2C(=O)O1 [α-ZEL, α-zearalenol]
Glucuronidation in pig urine [3]: 88% | Glucuronidation in urine [3]: 75%

C[C@H]1CCC[C@@H](O)CCC/C=C/c2cc(O[C@@H]3O[C@H](CO)[C@@H](O)[C@H](O)[C@H]3O)cc(O)c2C(=O)O1 [β-ZEL-14-Glc]
Share hydrolyzed after incubation with human gut microbiota (human gut microbiota): over 97% | Dose converted to unidentified metabolites / not recovered as identified metabolites (human gut microbiota): 70% | Dose detected as the aglycone (ZEN, α-ZEL or β-ZEL) (human gut microbiota): 30%
